Columns and labels:
CYP2C19 [1] = molecular target: T1, CYP2C19 (Homo sapiens, UniProt P33261); assay: CYP reversible inhibition in HLMs; settings: S-mephenytoin
OAT3 = molecular target: T2, OAT3 (Homo sapiens, UniProt Q8TCC7); assay: SLC inhibition assay in HEK293 cells; format: in vitro ADME
T2 sequence (Q8TCC7 1-542): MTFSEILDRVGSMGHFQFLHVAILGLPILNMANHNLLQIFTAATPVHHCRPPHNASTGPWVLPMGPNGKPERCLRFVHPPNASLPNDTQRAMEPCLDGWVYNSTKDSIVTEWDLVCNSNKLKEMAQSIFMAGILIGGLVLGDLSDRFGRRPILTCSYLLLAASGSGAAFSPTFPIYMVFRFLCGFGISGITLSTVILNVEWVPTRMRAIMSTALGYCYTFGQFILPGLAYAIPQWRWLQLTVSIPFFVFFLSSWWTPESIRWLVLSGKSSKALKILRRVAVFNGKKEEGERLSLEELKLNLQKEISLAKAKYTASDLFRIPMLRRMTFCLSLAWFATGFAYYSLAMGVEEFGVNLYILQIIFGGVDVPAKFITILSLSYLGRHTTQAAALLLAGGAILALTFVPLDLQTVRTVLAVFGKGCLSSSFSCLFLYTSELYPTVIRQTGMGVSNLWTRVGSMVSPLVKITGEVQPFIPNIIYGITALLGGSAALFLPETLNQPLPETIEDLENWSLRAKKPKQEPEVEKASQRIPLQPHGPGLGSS

P-gp = P-gp (Homo sapiens, UniProt P08183); settings: coadministration of zanubrutinib; cited from earlier work
Chain of P-gp (P08183 whole entry): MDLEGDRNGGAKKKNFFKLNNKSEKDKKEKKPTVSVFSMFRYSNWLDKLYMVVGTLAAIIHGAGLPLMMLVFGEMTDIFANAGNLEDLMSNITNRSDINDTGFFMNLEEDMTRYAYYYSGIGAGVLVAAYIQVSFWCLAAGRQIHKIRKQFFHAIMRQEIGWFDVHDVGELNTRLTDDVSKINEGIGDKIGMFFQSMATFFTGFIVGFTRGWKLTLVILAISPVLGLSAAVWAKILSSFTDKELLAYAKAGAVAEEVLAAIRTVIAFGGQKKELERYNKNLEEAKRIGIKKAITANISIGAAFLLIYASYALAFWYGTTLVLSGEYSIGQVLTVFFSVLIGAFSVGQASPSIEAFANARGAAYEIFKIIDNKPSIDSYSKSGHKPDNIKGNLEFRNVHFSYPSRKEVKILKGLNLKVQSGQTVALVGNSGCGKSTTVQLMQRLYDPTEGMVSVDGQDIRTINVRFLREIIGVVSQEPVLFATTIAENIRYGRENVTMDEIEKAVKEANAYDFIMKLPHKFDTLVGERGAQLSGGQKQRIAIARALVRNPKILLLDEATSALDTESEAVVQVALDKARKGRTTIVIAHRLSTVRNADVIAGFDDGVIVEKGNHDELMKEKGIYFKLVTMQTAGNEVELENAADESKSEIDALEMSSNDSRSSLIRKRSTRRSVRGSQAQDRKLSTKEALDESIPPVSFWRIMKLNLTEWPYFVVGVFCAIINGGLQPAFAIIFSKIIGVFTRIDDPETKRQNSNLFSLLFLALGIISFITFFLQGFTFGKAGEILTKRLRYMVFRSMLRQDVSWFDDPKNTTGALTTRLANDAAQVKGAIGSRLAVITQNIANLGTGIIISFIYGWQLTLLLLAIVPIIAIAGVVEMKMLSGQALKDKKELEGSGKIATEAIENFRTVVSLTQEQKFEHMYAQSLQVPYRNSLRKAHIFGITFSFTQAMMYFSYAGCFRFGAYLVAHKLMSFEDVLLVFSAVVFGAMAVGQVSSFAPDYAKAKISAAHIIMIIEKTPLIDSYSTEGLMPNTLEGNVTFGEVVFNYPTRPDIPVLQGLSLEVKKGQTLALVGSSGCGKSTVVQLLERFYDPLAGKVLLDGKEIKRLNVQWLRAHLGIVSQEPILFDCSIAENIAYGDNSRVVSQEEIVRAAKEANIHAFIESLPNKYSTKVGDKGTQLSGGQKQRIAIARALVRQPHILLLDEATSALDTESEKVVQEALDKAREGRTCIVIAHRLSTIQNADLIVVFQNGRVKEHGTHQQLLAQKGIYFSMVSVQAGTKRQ

CYP2C19 [2] = molecular target: T1, CYP2C19; assay: Time-dependent CYP inhibition in HLMs; settings: 10 µM zanubrutinib, 30 min pre-incubation with HLMs and NADPH
[3] = human, HEK293 cells overexpressing OAT3 (and MOCK cells), probe estrone sulfate

T1 sequence (P33261 whole entry): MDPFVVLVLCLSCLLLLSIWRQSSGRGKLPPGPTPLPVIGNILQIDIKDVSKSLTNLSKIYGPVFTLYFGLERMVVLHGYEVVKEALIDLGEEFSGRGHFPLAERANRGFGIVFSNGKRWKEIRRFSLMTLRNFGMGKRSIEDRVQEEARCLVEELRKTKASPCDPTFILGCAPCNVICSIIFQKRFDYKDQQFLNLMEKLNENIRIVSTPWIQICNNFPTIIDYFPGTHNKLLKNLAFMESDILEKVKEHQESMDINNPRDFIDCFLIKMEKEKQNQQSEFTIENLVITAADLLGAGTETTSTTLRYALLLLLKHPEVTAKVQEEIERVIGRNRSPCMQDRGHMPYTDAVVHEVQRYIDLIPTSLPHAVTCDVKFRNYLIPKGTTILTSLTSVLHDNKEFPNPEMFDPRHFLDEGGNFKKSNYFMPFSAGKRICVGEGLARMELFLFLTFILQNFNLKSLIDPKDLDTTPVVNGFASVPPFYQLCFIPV

C=CC(=O)N1CCC([C@@H]2CCNc3c(C(N)=O)c(-c4ccc(Oc5ccccc5)cc4)nn32)CC1 [zanubrutinib]
R1 (CYP2C19 [1]; DDI basic model, hepatic): 1.03
Ah (CYP2C19 [1]; static model term, liver inhibition): 0.97
Inhibition of uptake activity (OAT3; 0.05–5 µM): not inhibited
activity at 0.05 µM (OAT3; [3]): 90 ± 4.2%
activity at 0.2 µM (OAT3; [3]): 97.8 ± 7.7%
activity at 1 µM (OAT3; [3]): 113 ± 27%
activity at 5 µM (OAT3; [3]): 199 ± 34%
Increase of C max of P-gp probe digoxin (P-gp): 34%
Percent loss of enzymatic activity (CYP2C19 [2]): −4.58%
